Experimental data taken from patent US10954232B2, “Pyrazole derivative as ALK5 inhibitor and uses thereof” (HANMI PHARMACEUTICAL CO., LTD., priority 2016, dated 2021).

Target: T1, ALK5 kinase (Homo sapiens, UniProt P36897)
T1 construct: GST; purchased Thermo Fisher Scientific Solutions
T1 sequence (P36897 34-503): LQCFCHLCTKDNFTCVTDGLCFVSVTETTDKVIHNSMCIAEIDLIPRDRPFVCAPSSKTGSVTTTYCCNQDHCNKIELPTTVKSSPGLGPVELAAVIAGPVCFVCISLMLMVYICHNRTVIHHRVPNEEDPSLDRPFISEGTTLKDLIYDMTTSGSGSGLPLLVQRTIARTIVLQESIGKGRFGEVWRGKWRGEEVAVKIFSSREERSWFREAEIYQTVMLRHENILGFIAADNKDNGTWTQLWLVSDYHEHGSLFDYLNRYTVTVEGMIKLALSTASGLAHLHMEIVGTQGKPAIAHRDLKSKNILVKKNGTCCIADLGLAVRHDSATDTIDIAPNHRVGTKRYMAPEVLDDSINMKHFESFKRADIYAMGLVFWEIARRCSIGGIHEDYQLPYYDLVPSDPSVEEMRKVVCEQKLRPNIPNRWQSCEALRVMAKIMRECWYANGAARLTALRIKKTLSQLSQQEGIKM
Experiment: Activity inhibition test on ALK5 enzyme (LanthaScreen Eu binding kinase assay)
Conditions: kinase tracer 178, 60 minutes at room temperature
Description: For each of the compounds obtained in Examples 1 to 227, inhibitory activity against ALK5 kinase was measured.
For this, a LanthaScreen Eu binding kinase assay method was used, and ALK5 kinase, a kinase buffer, a kinase tracer 178, and a LanthaScreen Eu-GST binding antibody were all purchased from Thermo Fisher Scientific Solutions. Each of the compounds was made into a 10 mM DMSO solution, and diluted by 1/10 to a concentration of 1 μM to 0.0001 μM with an aqueous solution containing 4% DMSO. The test was performed in 384 well plates (well polystyrene low volume round-bottomed plates). First, 5 μL of the diluted compound solution was added, then 5 μL of the kinase/antibody mixture solution was introduced thereto, and 5 μL of the tracer was introduced thereto. Herein, these were added to each well so that the final kinase concentration became 5 nM, the final Eu-GST binding antibody concentration 2 nM, and the kinase tracer 178 concentration 10 nM, and the result was reacted in a stirrer for 60 minutes at room temperature. Then a fluorescence value was measured using a fluorescence meter (molecular device) ([…], 665 nm emission filter). Herein, as for the degree of compound activity to inhibit the kinase reaction, a phosphorylate rate was calculated from 0% to 100% with respect to a control group according to the protocol included in the kit, and a 50% inhibitory concentration (IC50) value was calculated by obtaining the x-axis concentration in the region where 50% activity was inhibited.

IC50 [nM]	Structure (SMILES)
1.5	Cc1cccc(-n2nc(C(=O)Nc3cnn(S(=O)(=O)C4CC4)c3)cc2-c2ccc3ncsc3c2)n1 [Example 81, 5-(benzo[d]thiazol-6-yl)-N-(1-(cyclopropylsulfonyl)-1H-pyrazol-4-yl)-1-(6-methylpyridin-2-yl)-1H-pyrazole-3-carboxyamide]
10 to 100	Cc1cccc(-n2nc(C(=O)Nc3ccc(F)c(F)c3)cc2-c2ccc3nccnc3c2)n1 [Example 186, N-(3,4-difluorophenyl)-1-(6-methylpyridin-2-yl)-5-(quinoxalin-6-yl)-1H-pyrazole-3-carboxyamide]
> 1000	Cc1cccc(-n2nc(C(=O)Nc3ccccc3F)cc2-c2ccc3nccnc3c2)c1 [Example 202, N-(2-fluorophenyl)-5-(quinoxalin-6-yl)-1-(m-tolyl)-1H-pyrazole-3-carboxyamide]
5.8	Cc1cccc(-n2nc(C(=O)Nc3ccc(Cl)nc3)cc2-c2ccc3ncsc3c2)n1 [Example 73, 5-(benzo[d]thiazol-6-yl)-N-(6-chloropyridin-3-yl)-1-(6-methylpyridin-2-yl)-1H-pyrazole-3-carboxyamide]
17	Cc1cccc(-n2nc(C(=O)Nc3ccc([N+](=O)[O-])cc3)cc2-c2ccc3ncsc3c2)n1 [Example 14, 5-(benzo[d]thiazol-6-yl)-1-(6-methylpyridin-2-yl)-N-(4-nitrophenyl)-1H-pyrazole-3-carboxyamide]
> 100	Cc1cccc(-n2nc(C(=O)NCc3ccc(C#N)cc3)cc2-c2ccc3nccnc3c2)n1 [Example 194, N-(4-cyanobenzyl)-1-(6-methylpyridin-2-yl)-5-(quinoxalin-6-yl)-1H-pyrazole-3-carboxyamide]
10 to 100	CC(=O)Nc1ccc(NC(=O)c2cc(-c3ccc4ncsc4c3)n(-c3cccc(C)n3)n2)cc1 [Example 26, 5-(benzo[d]thiazol-6-yl)-N-(4-acetamidophenyl)-1-(6-methylpyridin-2-yl)-1H-pyrazole-3-carboxyamide]
~10	Cc1cccc(-n2nc(C(=O)Nc3ccc(OC(C)C)cc3)cc2-c2ccc3ncnn3c2)n1 [Example 94]
2.5	Cc1cccc(-n2nc(C(=O)Nc3ccc(S(=O)(=O)N(C)C)cc3)cc2-c2ccc3ncsc3c2)n1 [Example 52, 5-(benzo[d]thiazol-6-yl)-N-(4-(N,N-dimethylsulfamoyl)phenyl)-1-(6-methylpyridin-2-yl)-1H-pyrazole-3-carboxyamide]
~10	Cc1cccc(-n2nc(C(=O)Nc3ccccc3OC(F)(F)F)cc2-c2ccc3ncnn3c2)n1 [Example 99, 5-([1,2,4]triazolo[1,5-α]pyridin-6-yl)-1-(6-methylpyridin-2-yl)-N-(2-(trifluoromethoxy)phenyl)-1H-pyrazole-3-carboxyamide]
~10	Cc1cccc(NC(=O)c2cc(-c3ccc4ncnn4c3)n(-c3cccc(C)n3)n2)c1 [Example 116, 5-([1,2,4]triazolo[1,5-α]pyridin-6-yl)-1-(6-methylpyridin-2-yl)-N-(m-tolyl)-1H-pyrazole-3-carboxyamide]
7	Cc1cccc(-n2nc(C(=O)Nc3ccc(N(C)C)cc3)cc2-c2ccc3ncnn3c2)n1 [Example 104, 5-([1,2,4]triazolo[1,5-α]pyridin-6-yl)-N-(4-(dimethylamino)phenyl)-1-(6-methylpyridin-2-yl)-1-H-pyrazole-3-carboxyamide]

More lines, now with the values behind:

Structure (SMILES)	IC50 [nM]
Cc1cccc(-n2nc(C(=O)Nc3cccc(F)c3)cc2-c2ccc3ncnn3c2)n1 [Example 125, 5-([1,2,4]triazolo[1,5-α]pyridin-6-yl)-N-(3-fluorophenyl)-1-(6-methylpyridin-2-yl)-1H-pyrazole-3-carboxyamide]	10 to 100
Cc1cccc(-n2nc(C(=O)Nc3ccc(N4CCCC4)cc3)cc2-c2ccc3ncnn3c2)n1 [Example 105, 5-([1,2,4]triazolo[1,5-α]pyridin-6-yl)-N-(4-(pyrrolidin-1-yl)phenyl)-1-(6-methylpyridin-2-yl)-1H-pyrazole-3-carboxyamide]	7
Cc1cccc(-n2nc(C(=O)Nc3ccc(S(C)(=O)=O)nc3)cc2-c2ccc3ncsc3c2)n1 [Example 69, 5-(benzo[d]thiazol-6-yl)-N-(6-(methylsulfonyl)pyridin-3-yl)-1-(6-methylpyridin-2-yl)-1H-pyrazole-3-carboxyamide]	4.9
CNC(=O)c1ccc(NC(=O)c2cc(-c3ccc4ncnn4c3)n(-c3cccc(C)n3)n2)cc1 [Example 113, 5-([1,2,4]triazolo[1,5-α]pyridin-6-yl)-N-(4-(methylcarbamoyl)phenyl)-1-(6-methylpyridin-2-yl)-1H-pyrazole-3-carboxyamide]	10 to 100
Cc1cccc(-n2nc(C(=O)Nc3ccc([S+](C)[O-])cc3)cc2-c2ccc3ncsc3c2)n1 (stereo not drawn) [Example 39, 5-(benzo[d]thiazol-6-yl)-1-(6-methylpyridin-2-yl)-N-(4-(methylsulfinyl)phenyl)-1H-pyrazole-3-carboxyamide]	2.4
Cc1cccc(-n2nc(C(=O)Nc3ccnc(F)c3)cc2-c2ccc3ncsc3c2)n1 [Example 72, 5-(benzo[d]thiazol-6-yl)-N-(2-fluoropyridin-4-yl)-1-(6-methylpyridin-2-yl)-1H-pyrazole-3-carboxyamide]	11
Cc1cccc(-n2nc(C(=O)Nc3ccc(OCC4CC4)cc3)cc2-c2ccc3ncsc3c2)n1 [Example 3, 5-(benzo[d]thiazol-6-yl)-N-(4-(cyclopropylmethoxy)phenyl)-1-(6-methylpyridin-2-yl)-1H-pyrazole-3-carboxyamide]	12
CSc1cccc(NC(=O)c2cc(-c3ccc4ncnn4c3)n(-c3cccc(C)n3)n2)c1 [Example 143]	6.6
Cc1cccc(-n2nc(C(=O)Nc3ccc(F)cc3)cc2-c2ccc3nccnc3c2)n1 [Example 183, N-(4-fluorophenyl)-1-(6-methylpyridin-2-yl)-5-(quinoxalin-6-yl)-1H-pyrazole-3-carboxyamide]	10 to 100
Cc1cccc(-n2nc(C(=O)Nc3ccccc3)cc2-c2ccc3ncnn3c2)n1 [Example 114, 5-([1,2,4]triazolo[1,5-α]pyridin-6-yl)-1-(6-methylpyridin-2-yl)-N-phenyl-1H-pyrazole-3-carboxyamide]	9.5
Cc1cccc(-n2nc(C(=O)Nc3ccc4c(c3)OCO4)cc2-c2ccc3ncnn3c2)n1 [Example 96, 5-([1,2,4]triazolo[1,5-α]pyridin-6-yl)-N-(benzo[d][1,3]dioxol-5-yl)-1-(6-methylpyridin-2-yl)-1H-pyrazole-3-carboxyamide]	3.5
Cc1cccc(-n2nc(C(=O)Nc3ccc(CS(C)(=O)=O)cc3)cc2-c2ccc3ncsc3c2)n1 [Example 59, 5-(benzo[d]thiazol-6-yl)-1-(6-methylpyridin-2-yl)-N-(4-((methylsulfonyl)methyl)phenyl)-1H-pyrazole-3-carboxyamide]	20
Cc1cccc(-n2nc(C(=O)Nc3ccc(CS(N)(=O)=O)cc3)cc2-c2ccc3ncsc3c2)n1 [Example 61, 5-(benzo[d]thiazol-6-yl)-1-(6-methylpyridin-2-yl)-N-(4-(sulfamoylmethyl)phenyl)-1H-pyrazole-3-carboxyamide]	10 to 100
CNC(=O)c1ccc(NC(=O)c2cc(-c3ccc4ncsc4c3)n(-c3cccc(C)n3)n2)cc1 [Example 25, 5-(benzo[d]thiazol-6-yl)-N-(4-(methylcarbamoyl)phenyl)-1-(6-methylpyridin-2-yl)-1H-pyrazole-3-carboxyamide]	< 10
Cc1cccc(-n2nc(C(=O)Nc3cccc(NS(=O)(=O)C4CC4)c3)cc2-c2ccc3ncsc3c2)n1 [Example 54, 5-(benzo[d]thiazol-6-yl)-N-(3-(cyclopropanesulfonamido)phenyl)-1-(6-methylpyridin-2-yl)-1H-pyrazole-3-carboxyamide]	2
COc1ccc(NC(=O)c2cc(-c3ccc4nccnc4c3)n(-c3cccc(C)n3)n2)cc1 [Example 164, N-(4-methoxyphenyl)-1-(6-methylpyridin-2-yl)-5-(quinoxalin-6-yl)-1H-pyrazole-3-carboxyamide]	18
Cc1cccc(-n2nc(C(=O)Nc3ccnc(S(C)(=O)=O)c3)cc2-c2ccc3ncsc3c2)n1 [Example 70, 5-(benzo[d]thiazol-6-yl)-1-(6-methylpyridin-2-yl)-N-(2-(methylsulfonyl)pyridin-4-yl)-1H-pyrazole-3-carboxyamide]	4.6
COc1ccccc1NC(=O)c1cc(-c2ccc3ncnn3c2)n(-c2cccc(C)n2)n1 [Example 92, 5-([1,2,4]triazolo[1,5-α]pyridin-6-yl)-N-(2-methoxyphenyl)-1-(6-methylpyridin-2-yl)-1H-pyrazole-3-carboxyamide]	10 to 100
